Source: patent publication US9492471B2, “Methods of treating a disease or disorder associated with Bruton'S Tyrosine Kinase” (Celgene Avilomics Research, Inc., priority 2013, dated 2016)
Where two headings read alike, the source gives them in different places.

How the values were obtained:
Assay in all cases: HotSpot kinase profiling
Type in all cases: biochemical
[1] = target: T1, FMS (Homo sapiens, UniProt P07333)
T1 construct: purchased Reaction Biology Corp
In short: (§1)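 P81 filtration radiometric readout; 2 h incubation at room temperature; 0.1% phosphoric acid wash; DMSO negative control; % inhibition, mean of replicate runs.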

[2] = target: T2, PKN3/PRK3 (Homo sapiens, UniProt Q6P5Z2)
T2 construct: purchased Reaction Biology Corp
In short: as §1

[3] = target: T3, RIPK5 (Homo sapiens, UniProt Q6XUX3)
T3 construct: purchased Reaction Biology Corp
T3 sequence (Q6XUX3 1-929): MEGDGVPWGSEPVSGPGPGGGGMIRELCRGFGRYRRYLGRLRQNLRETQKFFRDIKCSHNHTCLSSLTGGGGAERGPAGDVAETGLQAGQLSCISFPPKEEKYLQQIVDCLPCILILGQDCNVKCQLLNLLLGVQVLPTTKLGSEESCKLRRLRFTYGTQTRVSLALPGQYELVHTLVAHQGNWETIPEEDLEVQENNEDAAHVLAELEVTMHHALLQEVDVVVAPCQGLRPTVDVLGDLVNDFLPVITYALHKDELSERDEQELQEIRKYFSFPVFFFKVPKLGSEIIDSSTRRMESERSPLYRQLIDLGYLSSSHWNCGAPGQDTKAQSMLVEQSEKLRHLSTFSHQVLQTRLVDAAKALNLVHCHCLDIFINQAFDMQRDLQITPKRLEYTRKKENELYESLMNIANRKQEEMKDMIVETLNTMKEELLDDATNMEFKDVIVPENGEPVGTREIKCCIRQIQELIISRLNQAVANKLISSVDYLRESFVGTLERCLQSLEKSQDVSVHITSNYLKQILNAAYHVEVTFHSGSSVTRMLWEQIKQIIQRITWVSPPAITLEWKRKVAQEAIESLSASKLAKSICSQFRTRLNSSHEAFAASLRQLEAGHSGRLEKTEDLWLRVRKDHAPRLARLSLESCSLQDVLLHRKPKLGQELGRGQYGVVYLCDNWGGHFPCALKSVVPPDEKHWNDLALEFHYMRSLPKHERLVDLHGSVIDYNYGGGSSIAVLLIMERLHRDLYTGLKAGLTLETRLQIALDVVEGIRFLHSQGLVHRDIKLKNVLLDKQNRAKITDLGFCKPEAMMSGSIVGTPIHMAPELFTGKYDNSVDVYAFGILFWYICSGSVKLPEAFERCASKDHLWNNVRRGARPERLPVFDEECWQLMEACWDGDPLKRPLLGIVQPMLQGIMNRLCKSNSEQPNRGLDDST
In short: as §1

[4] = target: T4, TSSK3/STK22C (Homo sapiens, UniProt Q96PN8)
T4 construct: purchased Reaction Biology Corp
T4 sequence (Q96PN8 1-268): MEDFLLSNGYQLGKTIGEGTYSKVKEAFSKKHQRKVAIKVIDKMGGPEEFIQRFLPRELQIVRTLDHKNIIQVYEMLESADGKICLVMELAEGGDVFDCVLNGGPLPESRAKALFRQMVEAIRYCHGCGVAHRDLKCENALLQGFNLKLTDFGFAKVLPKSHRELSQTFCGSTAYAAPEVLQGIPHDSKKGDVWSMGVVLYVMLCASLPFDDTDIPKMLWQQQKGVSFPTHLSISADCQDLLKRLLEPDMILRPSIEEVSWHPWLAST
In short: as §1

[5] = read-out: % Enzyme Activity (relative to DMSO controls) Run 1
[6] = read-out: % Enzyme Activity (relative to DMSO controls) Run 2

T1 sequence (P07333 20-972): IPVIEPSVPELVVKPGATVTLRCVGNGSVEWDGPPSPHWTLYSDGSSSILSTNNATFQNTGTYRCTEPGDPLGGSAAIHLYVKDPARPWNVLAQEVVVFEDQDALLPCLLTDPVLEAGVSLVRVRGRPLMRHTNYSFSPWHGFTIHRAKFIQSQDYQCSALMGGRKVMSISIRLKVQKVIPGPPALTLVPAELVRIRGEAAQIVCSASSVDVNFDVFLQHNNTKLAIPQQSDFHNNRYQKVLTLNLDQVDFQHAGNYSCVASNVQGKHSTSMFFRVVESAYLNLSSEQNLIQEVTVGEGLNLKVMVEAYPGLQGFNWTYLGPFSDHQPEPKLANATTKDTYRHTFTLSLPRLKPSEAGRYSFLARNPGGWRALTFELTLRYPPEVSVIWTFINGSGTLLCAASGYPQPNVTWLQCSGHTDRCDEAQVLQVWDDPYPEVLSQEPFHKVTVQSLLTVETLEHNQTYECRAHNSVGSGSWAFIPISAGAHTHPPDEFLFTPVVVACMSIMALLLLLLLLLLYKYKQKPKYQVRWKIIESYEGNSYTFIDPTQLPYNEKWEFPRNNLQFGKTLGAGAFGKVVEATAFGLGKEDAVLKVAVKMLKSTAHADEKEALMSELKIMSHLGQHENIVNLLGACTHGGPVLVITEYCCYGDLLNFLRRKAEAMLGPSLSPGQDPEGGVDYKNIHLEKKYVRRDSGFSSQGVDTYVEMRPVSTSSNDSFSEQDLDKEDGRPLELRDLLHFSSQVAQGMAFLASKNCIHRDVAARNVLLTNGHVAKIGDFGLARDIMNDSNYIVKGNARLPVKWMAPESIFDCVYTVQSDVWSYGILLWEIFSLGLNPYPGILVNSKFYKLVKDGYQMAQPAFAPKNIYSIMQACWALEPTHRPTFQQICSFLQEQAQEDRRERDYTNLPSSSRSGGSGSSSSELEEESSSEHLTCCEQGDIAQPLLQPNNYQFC
T2 sequence (Q6P5Z2 whole entry): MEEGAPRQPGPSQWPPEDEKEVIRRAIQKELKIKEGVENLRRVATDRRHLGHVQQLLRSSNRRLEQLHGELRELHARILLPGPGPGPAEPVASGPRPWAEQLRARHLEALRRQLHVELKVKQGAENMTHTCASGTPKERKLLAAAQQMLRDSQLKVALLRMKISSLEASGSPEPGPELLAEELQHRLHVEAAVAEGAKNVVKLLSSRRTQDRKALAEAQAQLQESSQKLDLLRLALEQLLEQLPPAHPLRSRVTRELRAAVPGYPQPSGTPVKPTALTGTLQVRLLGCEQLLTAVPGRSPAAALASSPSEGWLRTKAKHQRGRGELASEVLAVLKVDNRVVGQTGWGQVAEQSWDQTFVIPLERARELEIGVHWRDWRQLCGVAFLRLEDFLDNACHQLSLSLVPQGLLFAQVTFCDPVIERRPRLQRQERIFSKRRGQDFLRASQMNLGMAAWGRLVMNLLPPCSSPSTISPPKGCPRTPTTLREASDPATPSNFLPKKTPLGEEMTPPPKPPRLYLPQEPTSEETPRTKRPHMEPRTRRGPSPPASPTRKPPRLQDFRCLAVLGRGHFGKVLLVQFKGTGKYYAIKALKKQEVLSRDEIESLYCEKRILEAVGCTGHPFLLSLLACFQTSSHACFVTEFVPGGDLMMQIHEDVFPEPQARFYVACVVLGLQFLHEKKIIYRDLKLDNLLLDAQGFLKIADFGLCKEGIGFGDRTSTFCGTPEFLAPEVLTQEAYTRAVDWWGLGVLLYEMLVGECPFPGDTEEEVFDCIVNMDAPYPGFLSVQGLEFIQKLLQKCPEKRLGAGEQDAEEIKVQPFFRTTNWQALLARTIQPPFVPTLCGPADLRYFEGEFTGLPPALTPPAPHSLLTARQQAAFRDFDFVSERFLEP

C=CC(=O)Nc1cccc(Nc2nc(Nc3ccc(OCCOC)c(F)c3)ncc2F)c1 [Compound 2]
inhibition at 3 µM [1]: 34.1% | remaining activity at 3 µM [1, 5]: 64.5% | remaining activity at 3 µM [1, 6]: 67.3% | inhibition at 3 µM [2]: -7.32% | remaining activity at 3 µM [2, 5]: 106% | remaining activity at 3 µM [2, 6]: 108% | inhibition at 3 µM [3]: 2.32% | remaining activity at 3 µM [3, 5]: 96.1% | remaining activity at 3 µM [3, 6]: 99.2% | inhibition at 3 µM [4]: -32.6% | remaining activity at 3 µM [4, 5]: 133% | remaining activity at 3 µM [4, 6]: 133%
